Test results reported in article PMC4348493, “CD47 Agonist Peptides Induce Programmed Cell Death in Refractory Chronic Lymphocytic Leukemia B Cells via PLCγ1 Activation: Evidence from Mice and Humans” (PLoS Medicine, 2015).
“Also recorded” adds a separate entry of the source. Ends that are not written are not given here.

Assays:
[1] = test system: CLL B lymphocytes (CD19+/CD5+); details: for Effect of pre-incubation on PKHB1-mediated cell death in CLL cells: added 30 min before PKHB1 200 μM, BAPTA 5 mM, BAPTA-AM 20 μM, 2-APB 60 μM, dantrolene 40 μM, U73122 200 nM, hSIRPα-Fc 15 μg/ml; for Cytotoxicity / PCD in CLL cells (Annexin-V and PI co-positivity): 200-μM peptides, 2 h of treatment (Fig 1D, 1E)
Description: (§1) Mononuclear cells were purified from blood samples using a standard Ficoll-Hypaque gradient, and B cells were positively or negatively selected by magnetic microbeads coupled either to an anti-CD19 monoclonal antibody (positive selection) or to anti-CD16,-CD3, and-CD14 monoclonal antibodies (negative depletion) (Miltenyi Biotech). […] B lymphocytes, MEC-1, and M210B4 bone marrow stromal cells (ATCC) were cultured in complete medium (RPMI 1640 supplemented with 10% fetal calf serum, 2 mM L-glutamine, and 100 U/ml penicillin-streptomycin). In selected experiments, CLL cells were cultured in Ca^2+-free medium (RPMI 1640 without calcium, supplemented with dialyzed 10% fetal calf serum) prior to the induction of cell death.
(§2) Annexin-V-APC (0.1 μg/ml; BD Biosciences) was used for the assessment of phosphatidylserine exposure, propidium iodide (PI, 0.5 μg/ml) for cell viability analysis, and tetramethylrhodamine ethyl ester (TMRE, 20 nM) for mitochondrial transmembrane potential (ΔΨm) quantification. PCD was recorded in a FACSCanto II (BD Biosciences) in the total population (10,000 cells), and data were analyzed using FlowJo software. Chymotrypsin-like serine protease (serpase) or caspase cytofluorometric detection was performed with SerPase or Caspase activity kits from Imgenex (IMI-2301 and IMI-2315). Residual and leukemic B cells from CLL patients were discriminated from the mononuclear blood fraction by double labeling with anti-CD19 PerCP-Cyc5.5 (clone SJ25C1; BD Biosciences) and anti-CD5-PE-Cy7 mAb (clone L17F12; BD Biosciences). T cells from CLL patients were identified by a double anti-CD19 PerCP-Cyc5.5 and anti-CD3-PE-Cy7 (clone SK7; BD Biosciences) staining. Calreticulin cell surface exposure was recorded with anti-calreticulin-PE (clone FMC75; Assay Designs). […] A QuantiBRITE flow cytometry system (BD Biosciences) was used to assess the number of CD47 molecules expressed on normal and CLL B lymphocytes.
To induce PCD, 1 × 10^6 cells/ml were treated for 2 h with PKHB1 (200 μM), 4N1K (300 μM), 4NGG (300 μM), or an anti-CD47 monoclonal antibody ([…], clone B6H12 in soluble or immobilized conditions). To provide pro-survival microenvironment signals, CLL cells were pre-incubated with sCD40L (5 μg/ml) and IL-4 (20 ng/ml) or co-cultured with the M210B4 bone marrow stromal cell line (ATCC) before death was induced. To control for caspase-dependent apoptosis, cells were incubated for 12 h with etoposide (250 μM). For the inhibition assays, BAPTA-AM (20 μM); BAPTA (5 mM); Ru360 (750 nM); dantrolene (40 μM); 2-aminoethoxydiphenyl borate (2-APB, 60 μM); U73122 (200 nM); the broad spectrum caspase inhibitors Q-VD-OPh (QVD, 10 μM) and z-VAD-FMK (50 μM); the specific caspase inhibitors z-DEVD-FMK (50 μM, caspase-3/7), z-LEHD-FMK (50 μM, […]), and z-IETD-FMK (50 μM, […]); the serpase inhibitor TPCK (20 μM); or the fusion protein hSIRPα-Fc (15 μg/ml) was added 30 min before inducing PCD.

MEC-1 tumors = experiment: CLL-xenograft model: MEC-1 tumors in NSG mice; format: in vivo, mouse (NOD/scid gamma); details: weekly intraperitoneal injection; n = 8 per group (Fig 7C)
Description: In the CLL-xenograft model, MEC-1 cells (3 × 10^6) were injected subcutaneously into NOD/scid gamma (NSG) mice. When the tumor volume reached 100 mm^3, mice received intraperitoneal injections of PBS, PKHB1, or 4N1K (200 μg in 200 μl of PBS) once a week. Tumor size was measured with a caliper, and tumor volume was calculated using the formula (length × width^2)/2 and expressed in cubic millimeters. Alternatively, at 28 d after the engraftment, XenoLight RediJect 2-DG 750 Probe (Caliper) was injected into the retro-orbital sinus to visualize tumor glucose uptake, which reflects cell proliferation. Fluorescence was measured using an in vivo imaging system FX Pro (Kodak), and pictures were analyzed with Carestream Molecular Imaging software.
To determine hemoglobin levels, tumors were excised from euthanized mice, weighed, and homogenized in PBS. After centrifugation, formic acid was added to the supernatant, and the hemoglobin concentration was calculated based on the absorbance at 405 nm.
To assess PCD, calreticulin exposure, and PLCγ1-Y783, dissociated tumors were digested in medium containing Liberase-TL (Roche), DNase-I (Calbiochem), and Collagenase-IV (Life Technologies). Single-cell suspension, obtained by filtering through a […] cell strainer, was analyzed by flow cytometry.

[2] = test system: CD19+/CD5- B cells (residual B cells); experiment: Cell death by Annexin-V/PI in residual B cells of CLL patients; format: cell-based, human; details: 200 μM, 2 h; n = 20 (Fig 1G)
Description: as §2, with “lymphocytes. […]” for “lymphocytes.”

[3] = Peptide degradation assay in human serum (HPLC); format: in vitro ADME; details: peptide 10 mg/ml in 1:4 human serum/RPMI 1640, 37°C, absorbance 220 nm
Description: 4N1K or PKHB1 (10 mg/ml), diluted in a 1:4 human serum/RPMI 1640 mixture, was incubated at 37°C for different lengths of time, then mixed with ethanol and 5 ml of 1 M NaOH and incubated at 4°C for at least 15 min to precipitate serum proteins. The supernatant was collected and injected in an HPLC system, and the soluble peptide was eluted by a linear gradient of 5% to 50% ACN (0.1% [v/v] TFA in acetonitrile) in aqueous 0.1% (v/v) TFA. The concentration of the peptide was calculated by the integration of the absorbance at 220 nm as a function of the retention time.

[4] = Mice toxicity studies (hematology, kidney and liver histology); format: in vivo, mouse (NSG; details: weekly intraperitoneal injection, 10 mg/kg, 3 wk, NSG or C57BL/6 mice (S9 Fig)
Description: In mice toxicity studies, we used the same injection protocol as in xenografted NSG mice. The hematological parameters were monitored in blood drawn from the retro-orbital plexus from either vehicle- (PBS) or PKHB1-treated wild-type mice (C57BL/6) with an MS9–5 analyzer (Melet Schloesing). Kidneys and livers (24 h after the third injection of PBS or PKHB1) were fixed and embedded in paraffin. Paraffin sections ([…] thick) of kidney and liver were deparaffinized and rehydrated before staining with periodic acid—Schiff and hematoxylin-eosin, respectively.

CD19-/CD3+ T cells = experiment: Cell death by Annexin-V/PI in T cells of CLL patients; format: cell-based, human; details: 200 μM, 2 h; n = 8 (Fig 1G)
Description: as §2, with “lymphocytes. […]” for “lymphocytes.”

CD47 [5] = target: CD47 (Homo sapiens, UniProt Q08722); experiment: Binding to CD47 (fluorescence polarization, isothermal titration calorimetry, microscale thermophoresis); details: isothermal titration calorimetry and microscale thermophoresis binding assays (methods per ref 82), read-out: Dissociation constant (Kd) to CD47
Chain of CD47 (Homo sapiens, UniProt Q08722) (Q08722 19-323): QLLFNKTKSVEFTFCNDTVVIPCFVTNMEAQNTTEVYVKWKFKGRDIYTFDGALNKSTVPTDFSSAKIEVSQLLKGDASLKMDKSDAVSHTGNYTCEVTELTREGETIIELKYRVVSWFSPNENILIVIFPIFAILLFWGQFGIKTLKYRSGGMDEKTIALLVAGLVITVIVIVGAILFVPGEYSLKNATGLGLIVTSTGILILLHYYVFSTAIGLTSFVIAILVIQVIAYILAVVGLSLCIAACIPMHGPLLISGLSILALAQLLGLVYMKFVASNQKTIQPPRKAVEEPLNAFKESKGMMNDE
Source text: Supplementary file pmed.1001796.s002.tif: S2 Fig Primary structure of 4NGG, 4N1K, and PKHB1. In 4NGG, the two central valines of 4N1K were replaced by glycines (highlighted in red). In PKHB1, the N- and C-terminal lysines of 4N1K were replaced with their D counterparts (highlighted in green). […] (TIF) Click here for additional data file.

MEC-1 cells = experiment: Cell death by Annexin-V/PI in MEC-1 cells; format: cell-based, human; details: PKHB1 200 μM, 2 h; etoposide 250 μM, 12 h (S7, S8 Figs)
Description: as §1
Annexin-V-APC (0.1 μg/ml; BD Biosciences) was used for the assessment of phosphatidylserine exposure, propidium iodide (PI, 0.5 μg/ml) for cell viability analysis, and tetramethylrhodamine ethyl ester (TMRE, 20 nM) for mitochondrial transmembrane potential (ΔΨm) quantification. PCD was recorded in a FACSCanto II (BD Biosciences) in the total population (10,000 cells), and data were analyzed using FlowJo software. […] Calreticulin cell surface exposure was recorded with anti-calreticulin-PE (clone FMC75; Assay Designs). […]

CLL cells = experiment: Caspase activity (FAM caspase detection kit) in CLL cells; format: cell-based, human; details: PKHB1 200 μM, 2 h; etoposide 250 μM, 12 h; representative CLL donor (Fig 2G)
CD47 [6] = target: T1, CD47 (UniProt Q08722 19-323); experiment: fluorescence polarisation + ITC + MST; not told; one Kd is printed for each peptide for the three methods together; the legend refers to ref. 82
T1 construct: CD47; in the cell death assays it is the endogenous CD47 on human CLL B cells; the CD47 preparation is not described; also called cell surface receptor CD47
T1 sequence (Q08722 19-323): as above

Molecule: COc1ccc2c(c1)CC[C@@H]1[C@@H]2CC[C@]2(C)[C@@H](NCCCCCCN3C(=O)C=CC3=O)CC[C@@H]12 [U73122]
- Effect of pre-incubation on PKHB1-mediated cell death in CLL cells ([1]; 2 h): significantly decreased PCD

Molecule: CC(=O)OCOC(=O)CN(CC(=O)OCOC(C)=O)c1ccccc1OCCOc1ccccc1N(CC(=O)OCOC(C)=O)CC(=O)OCOC(C)=O [BAPTA-AM]
- Effect of pre-incubation on PKHB1-mediated cell death in CLL cells ([1]; 2 h): significantly decreased

Molecule: CSCC[C@H](NC(=O)[C@@H](NC(=O)[C@@H](NC(=O)[C@H](Cc1ccc(O)cc1)NC(=O)[C@H](Cc1ccccc1)NC(=O)[C@H](CCCNC(=N)N)NC(=O)[C@H](N)CCCCN)C(C)C)C(C)C)C(=O)N[C@@H](Cc1c[nH]c2ccccc12)C(=O)N[C@@H](CCCCN)C(=O)N[C@H](CCCCN)C(=O)O [PKHB1]
- Anemia (hemoglobin levels within the engrafted tumors) (MEC-1 tumors): did not provoke anemia
- Cytotoxicity in residual CD5- B lymphocytes of CLL patients [2]: ~ 5%
- Degradation during long-term incubation in human serum ([3]; long-term incubation): not degraded
- Cytotoxicity / PCD in CLL cells (Annexin-V and PI co-positivity) [1]: ~ 49%
- Blood, liver, kidney toxicity [4]: no toxic effect; also recorded: No blood, liver, or kidney toxicity
- Cytotoxicity in T cells of CLL patients (CD19-/CD3+ T cells): ~ 10%

Molecule: KRFYGGMWKK [4NGG]
- Kd (CD47 [5]): 1000 µM

Molecule: CSCC[C@H](NC(=O)[C@@H](NC(=O)[C@@H](NC(=O)[C@H](Cc1ccc(O)cc1)NC(=O)[C@H](Cc1ccccc1)NC(=O)[C@H](CCCNC(=N)N)NC(=O)[C@@H](N)CCCCN)C(C)C)C(C)C)C(=O)N[C@@H](Cc1c[nH]c2ccccc12)C(=O)N[C@@H](CCCCN)C(=O)N[C@@H](CCCCN)C(=O)O [4N1K]
- metabolised at 1 h, 10 mg/ml ([3]; human serum diluted 1:4 in RPMI 1640, 1-h incubation, serum proteins precipitated with ethanol/NaOH, read-out: Peptide degraded in human serum): > 90%
- Cytotoxicity / PCD in CLL cells (Annexin-V and PI co-positivity) [1]: ~ 25%

Molecule: O=C(O)CN(CC(=O)O)c1ccccc1OCCOc1ccccc1N(CC(=O)O)CC(=O)O [BAPTA]
- Effect of pre-incubation on PKHB1-mediated cell death in CLL cells ([1]; 2 h): abolished

Molecule: O=C1CN(/N=C/c2ccc(-c3ccc([N+](=O)[O-])cc3)o2)C(O)=N1 [dantrolene]
- Effect of pre-incubation on PKHB1-mediated cell death in CLL cells ([1]; 2 h): significantly decreased

Molecule: NCCOB(c1ccccc1)c1ccccc1 [2-APB, 2-aminoethoxydiphenyl borate]
- Effect of pre-incubation on PKHB1-mediated cell death in CLL cells ([1]; 2 h): significantly decreased

Molecule: COc1cc([C@@H]2c3cc4c(cc3[C@@H](O[C@@H]3O[C@@H]5CO[C@@H](C)O[C@H]5[C@H](O)[C@H]3O)[C@H]3COC(=O)[C@H]23)OCO4)cc(OC)c1O [etoposide]
- Cell death response of MEC-1 cells (dysfunctional TP53) (MEC-1 cells): resistant to etoposide treatment
- Cell death response with microenvironment survival signals (sCD40L + IL-4 or M210B4 bone marrow stromal cells) ([1]; PKHB1 200 μM, 2 h, etoposide 250 μM, 12 h, n = 8 patients (Fig 2B)): significantly diminished
- Activated caspases, positive cells (CLL cells): ~ 47%

B1: PKHB1 (peptide)
peptide: KRFYVVMWKK
modifications: D-lysine at the N-terminus and D-lysine at the C-terminus (printed as lower-case k)
notes: N-terminal lysine, not part of thrombospondin-1 (introduced in 4N1K to improve solubility); here the D analogue; stretch of the C-terminal domain of thrombospondin-1 (TSP1); C-terminal lysine, not part of thrombospondin-1 (introduced in 4N1K to improve solubility); 4N1K with its N- and C-terminal lysines replaced by their D counterparts; also called k-R-F-Y-V-V-M-W-K-k; source: synthetic peptide …
- Kd (CD47 [6]): 0.4 µM

B2: 4N1K (peptide)
peptide: KRFYVVMWKK
notes: N-terminal lysine introduced to improve solubility, not part of thrombospondin-1; stretch of the C-terminal domain of thrombospondin-1 (TSP1); C-terminal lysine introduced to improve solubility, not part of thrombospondin-1; also called K-R-F-Y-V-V-M-W-K-K; TSP1-derived decapeptide; source: synthetic peptide (solid-phase synthesis, purified by reverse phase HPLC, purity greater than 95%)
- Kd (CD47 [6]): 1.5 µM
